In ChEMBL document CHEMBL3862012, “Methylene versus carbonyl bridge in the structure of new tubulin polymerization inhibitors with tricyclic A-rings” (Bioorg Med Chem, 2016):

What was measured:
Assay type in all cases: functional
[1] = Cytotoxicity against human OVCAR8 cells assessed as growth inhibition at 10 uM after 48 hrs by SRB assay relative to control; settings: OVCAR-8, 48 h, read-out: GI
[2] = Cytotoxicity against human OVCAR3 cells assessed as growth inhibition after 48 hrs by SRB assay; settings: OVCAR-3, 48 h
[3] = Cytotoxicity against human Caki1 cells assessed as growth inhibition after 48 hrs by SRB assay; settings: CAKI-1, 48 h
[4] = Cytotoxicity against human NCI-H460 cells assessed as growth inhibition after 48 hrs by SRB assay; settings: NCI-H460, 48 h
[5] = Cytotoxicity against human SK-MEL-5 cells assessed as growth inhibition after 48 hrs by SRB assay; settings: SK-MEL-5, 48 h
[6] = Cytotoxicity against human LOXIMVI cells assessed as growth inhibition after 48 hrs by SRB assay; settings: LOX IMVI
[7] = Cytotoxicity against human A549 cells assessed as growth inhibition after 48 hrs by SRB assay; settings: A549, 48 h
[8] = Cytotoxicity against human SF268 cells assessed as growth inhibition after 48 hrs by SRB assay; settings: SF-268, 48 h
[9] = Cytotoxicity against human K562 cells assessed as growth inhibition at 10 uM after 48 hrs by SRB assay relative to control; settings: K562, 48 h, read-out: GI
[10] = Cytotoxicity against human KM12 cells assessed as growth inhibition after 48 hrs by SRB assay; settings: KM12, 48 h
[11] = Cytotoxicity against human DU145 cells assessed as growth inhibition after 48 hrs by SRB assay; settings: DU-145, 48 h
[12] = Cytotoxicity against human CCRF-CEM cells assessed as growth inhibition after 48 hrs by SRB assay
[13] = Cytotoxicity against human Hs 578T cells assessed as growth inhibition after 48 hrs by SRB assay
[14] = Cytotoxicity against human SN12C cells assessed as growth inhibition at 10 uM after 48 hrs by SRB assay relative to control; settings: read-out: GI
[15] = Cytotoxicity against human MDA-MB-468 cells assessed as growth inhibition after 48 hrs by SRB assay; settings: MDA-MB-468, 48 h
[16] = Cytotoxicity against human UO31 cells assessed as growth inhibition after 48 hrs by SRB assay; settings: UO-31, 48 h
[17] = Cytotoxicity against human SW620 cells assessed as growth inhibition after 48 hrs by SRB assay; settings: SW-620, 48 h
[18] = Cytotoxicity against human SKOV3 cells assessed as growth inhibition after 48 hrs by SRB assay; settings: SK-OV-3, 48 h
[19] = Cytotoxicity against human M14 cells assessed as growth inhibition after 48 hrs by SRB assay; settings: M14, 48 h
[20] = Cytotoxicity against human SF539 cells assessed as growth inhibition after 48 hrs by SRB assay; settings: SF-539, 48 h
[21] = Cytotoxicity against human 786-0 cells assessed as growth inhibition after 48 hrs by SRB assay; settings: 786-0, 48 h
[22] = Cytotoxicity against human BT549 cells assessed as growth inhibition after 48 hrs by SRB assay; settings: BT-549, 48 h
[23] = Cytotoxicity against human HOP62 cells assessed as growth inhibition after 48 hrs by SRB assay; settings: HOP-62, 48 h
[24] = Cytotoxicity against human MDA-MB-435 cells assessed as growth inhibition after 48 hrs by SRB assay; settings: MDA-MB-435, 48 h
[25] = Cytotoxicity against human OVCAR4 cells assessed as growth inhibition after 48 hrs by SRB assay; settings: OVCAR-4, 48 h
[26] = Cytotoxicity against human PC3 cells assessed as growth inhibition after 48 hrs by SRB assay; settings: PC-3, 48 h
[27] = Cytotoxicity against human MOLT4 cells assessed as growth inhibition after 48 hrs by SRB assay; settings: MOLT-4, 48 h
[28] = Cytotoxicity against human SNB75 cells assessed as growth inhibition after 48 hrs by SRB assay; settings: SNB-75, 48 h
[29] = Cytotoxicity against human RPMI8226 cells assessed as growth inhibition after 48 hrs by SRB assay; settings: RPMI-8226, 48 h
[30] = Cytotoxicity against human A498 cells assessed as growth inhibition after 48 hrs by SRB assay; settings: A498, 48 h
[31] = Cytotoxicity against human NCI-ADR-RES cells assessed as growth inhibition after 48 hrs by SRB assay
[32] = Cytotoxicity against human HCT15 cells assessed as growth inhibition after 48 hrs by SRB assay; settings: HCT-15, 48 h
[33] = Cytotoxicity against human NCI-H23 cells assessed as growth inhibition after 48 hrs by SRB assay; settings: NCI-H23, 48 h
[34] = Cytotoxicity against human OVCAR5 cells assessed as growth inhibition after 48 hrs by SRB assay; settings: OVCAR-5, 48 h
[35] = Cytotoxicity against human MALME-3M cells assessed as growth inhibition after 48 hrs by SRB assay

Row | Structure (SMILES) | inhibition of growth at 10 µM [1] [%] | GI50 [2] [nM] | GI50 [3] [nM] | GI50 [4] [nM] | GI50 [5] [nM] | GI50 [6] [nM] | GI50 [7] [nM] | GI50 [8] [nM] | GI50 [11] [nM] | GI50 [12] [nM] | GI50 [13] [nM] | GI50 [15] [nM] | GI50 [16] [nM] | GI50 [17] [nM] | GI50 [18] [nM] | GI50 [19] [nM] | GI50 [20] [nM] | GI50 [21] [nM] | GI50 [24] [nM] | GI50 [32] [nM] | other results
1 | COc1ccc(CN2c3ccccc3Oc3ccccc32)cc1F | 35 | – | – | – | – | – | – | – | – | – | – | – | – | – | – | – | – | – | – | – | –
2 | COc1ccc(CN2c3ccccc3Sc3ccccc32)cc1F | 76 | 264 | 386 | 389 | 488 | 722 | 757 | 1430 | 438 | 428 | 459 | 309 | 916 | 384 | 475 | 317 | 330 | 579 | 189 | 437 | inhibition of growth at 10 µM [9]: 89%; GI50 [10]: 419 nM; inhibition of growth at 10 µM [14]: 55%; GI50 [22]: 562 nM; GI50 [23]: 506 nM; GI50 [25]: 7250 nM; GI50 [26]: 485 nM; GI50 [27]: 468 nM; GI50 [28]: 204 nM; GI50 [29]: 482 nM; GI50 [30]: 283 nM; GI50 [31]: 326 nM; GI50 [33]: 764 nM
3 | COc1ccc(CN2c3ccccc3Sc3ccccc32)c(C(F)(F)F)c1 | 69 | 513 | 1530 | 456 | 500 | 832 | 807 | 10900 | 2080 | 454 | 877 | 275 | 3980 | 443 | 5570 | 446 | 452 | 9050 | 396 | 489 | GI50 [22]: 3120 nM; GI50 [34]: 9.75 µM; GI50 [23]: 604 nM; GI50 [25]: 2160 nM; GI50 [26]: 546 nM; GI50 [27]: 288 nM; GI50 [28]: 241 nM; GI50 [35]: 21 µM; GI50 [29]: 3000 nM; GI50 [30]: 372 nM; GI50 [31]: 462 nM; GI50 [33]: 1030 nM
4 | COc1ccc(CN2c3ccccc3CCc3ccccc32)cc1F | – | 285 | 549 | 419 | 522 | 725 | 732 | 660 | 481 | 515 | 487 | 399 | 814 | 386 | 471 | 354 | 287 | 572 | 187 | 428 | inhibition of growth at 10 µM [9]: 94%; GI50 [10]: 387 nM; inhibition of growth at 10 µM [14]: 61%; GI50 [22]: 746 nM; GI50 [34]: 1.9 µM; GI50 [23]: 529 nM; GI50 [25]: 868 nM; GI50 [26]: 489 nM; GI50 [27]: 554 nM; GI50 [28]: 277 nM; GI50 [29]: 644 nM; GI50 [30]: 339 nM; GI50 [31]: 456 nM; GI50 [33]: 672 nM
5 | COc1ccc(CN2c3ccccc3Sc3ccccc32)cc1O | 78 | 304 | 472 | 444 | 438 | 710 | 471 | 966 | 374 | 411 | 933 | 531 | 752 | 504 | 521 | 383 | 270 | 838 | 234 | 369 | GI50 [22]: 773 nM; GI50 [34]: 12.7 µM; GI50 [23]: 384 nM; GI50 [25]: 726 nM; GI50 [26]: 503 nM; GI50 [27]: 642 nM; GI50 [28]: 180 nM; GI50 [35]: 12.2 µM; GI50 [29]: 420 nM; GI50 [30]: 2710 nM; GI50 [31]: 291 nM; GI50 [33]: 364 nM
6 | COc1ccc(CN2c3ccccc3Oc3ccccc32)cc1O | 64 | – | – | – | – | – | – | – | – | – | – | – | – | – | – | – | – | – | – | – | –
7 | COc1ccc(CN2c3ccccc3Sc3ccccc32)c(F)c1 | – | – | – | – | – | – | – | – | – | – | – | – | – | 36 | – | 38 | – | – | 25 | 38 | inhibition of growth at 10 µM [9]: 91%; GI50 [10]: 43 nM; inhibition of growth at 10 µM [14]: 53%; GI50 [34]: 4.39 µM
